The record followed here is article PMC10667816, “A Cell‐Penetrant Peptide Disrupting the Transcription Factor CP2c Complexes Induces Cancer‐Specific Synthetic Lethality” (Advanced Science, 2023).

In test [1] the test system is over 450 human kinases or disease‐relevant mutant variants. Put plainly: KINOMEscan screening. Format: binding.
Test [2] concerns cisplatin‐resistant cancer cells. Put plainly: Growth inhibition in cisplatin‐resistant cancer cells. Format: cell-based, human. Particulars: cisplatin‐resistant variants of Hep3B, HCT116, MDA‐MB‐231. As for the experimental part:
Information of the cell lines is listed in Table S1 (Supporting Information), including their origin and culture conditions. All cell lines were cultured at 37 °C, 5% CO2 incubator. MDA‐MB‐231 (LM1), HepG2, Hep3B, and HCT116 cell lines were authenticated with short tandem repeat markers based on ATCC information. All cell lines tested negative for mycoplasma contamination. Transient downregulation of the gene of interest was conducted by siRNA transfection using Lipofectamine 2000 (Thermo Fisher, 11668019) according to the manufacturer's instructions. Information about siRNAs is provided in Table S2 (Supporting Information). […] For erythroid terminal differentiation experiments, differentiation was assessed by hemoglobin staining using a 0.2% (w/v) tetramethylbenzidine solution (Sigma–Aldrich, T0440) in 0.6% hydrogen peroxide, 3% acetic acid for 10 min in dark condition. Benzidine‐positive or negative cell numbers were counted under the inverted microscope BX50 (Olympus) at 200 × magnification. […] After each synchronization, cells were fixed at 4‐h intervals for 24 h with ACP52C treatment, and the cell cycle was analyzed by Propidium Iodide (PI) staining or intracellular protein was analyzed by immunofluorescence. […] This development period was repeated four times for one round, after which GI50 concentrations were re‐assessed in each resistant cell line. […]

Where a SMILES comes first, the peptide text is derived from it.

As for `CC(=O)N[C@@H](CC(N)=O)C(=O)N[C@@H](Cc1ccc(O)cc1)C(=O)N1CCC[C@H]1C(=O)N[C@@H](CCC(N)=O)C(=O)N[C@@H](CCCNC(=N)N)C(=O)N1CCC[C@H]1C(=O)N[C@@H](CS)C(=O)N[C@@H](CCCNC(=N)N)C(=O)NCC(=O)N[C@@H](CC(=O)O)C(=O)N[C@@H](CCCCN)C(=O)NCC(=O)N1CCC[C@H]1C(=O)N[C@@H](CC(=O)O)C(=O)N[C@@H](CS)C(N)=O` [ACP52C] (Ac-NYPQRPCRGDKGPDC-NH2), in test [1], the interactions with kinases result was “did not exhibit interactions”. Besides, the “anticancer activity in cisplatin‐resistant cells” value in test [2] is recorded as “effectiveness in targeting cisplatin‐resistant cancer cells”.
